Laboratory results taken from ChEMBL document CHEMBL3608230, “Design, synthesis and RON receptor tyrosine kinase inhibitory activity of new head groups analogs of LCRF-0004” (Bioorg Med Chem Lett, 2015).
pIC50: −log10 of the molar value.

Key:
[1] = target: Macrophage-stimulating protein receptor (Homo sapiens, UniProt Q04912); assay: Inhibition of human RON
[2] = target: Hepatocyte growth factor receptor (Homo sapiens, UniProt P08581); assay: Inhibition of c-Met phosphorylation in human MKN45 cells; format: cell-based, MKN-45
Hepatocyte growth factor receptor, sequence (P08581 whole entry): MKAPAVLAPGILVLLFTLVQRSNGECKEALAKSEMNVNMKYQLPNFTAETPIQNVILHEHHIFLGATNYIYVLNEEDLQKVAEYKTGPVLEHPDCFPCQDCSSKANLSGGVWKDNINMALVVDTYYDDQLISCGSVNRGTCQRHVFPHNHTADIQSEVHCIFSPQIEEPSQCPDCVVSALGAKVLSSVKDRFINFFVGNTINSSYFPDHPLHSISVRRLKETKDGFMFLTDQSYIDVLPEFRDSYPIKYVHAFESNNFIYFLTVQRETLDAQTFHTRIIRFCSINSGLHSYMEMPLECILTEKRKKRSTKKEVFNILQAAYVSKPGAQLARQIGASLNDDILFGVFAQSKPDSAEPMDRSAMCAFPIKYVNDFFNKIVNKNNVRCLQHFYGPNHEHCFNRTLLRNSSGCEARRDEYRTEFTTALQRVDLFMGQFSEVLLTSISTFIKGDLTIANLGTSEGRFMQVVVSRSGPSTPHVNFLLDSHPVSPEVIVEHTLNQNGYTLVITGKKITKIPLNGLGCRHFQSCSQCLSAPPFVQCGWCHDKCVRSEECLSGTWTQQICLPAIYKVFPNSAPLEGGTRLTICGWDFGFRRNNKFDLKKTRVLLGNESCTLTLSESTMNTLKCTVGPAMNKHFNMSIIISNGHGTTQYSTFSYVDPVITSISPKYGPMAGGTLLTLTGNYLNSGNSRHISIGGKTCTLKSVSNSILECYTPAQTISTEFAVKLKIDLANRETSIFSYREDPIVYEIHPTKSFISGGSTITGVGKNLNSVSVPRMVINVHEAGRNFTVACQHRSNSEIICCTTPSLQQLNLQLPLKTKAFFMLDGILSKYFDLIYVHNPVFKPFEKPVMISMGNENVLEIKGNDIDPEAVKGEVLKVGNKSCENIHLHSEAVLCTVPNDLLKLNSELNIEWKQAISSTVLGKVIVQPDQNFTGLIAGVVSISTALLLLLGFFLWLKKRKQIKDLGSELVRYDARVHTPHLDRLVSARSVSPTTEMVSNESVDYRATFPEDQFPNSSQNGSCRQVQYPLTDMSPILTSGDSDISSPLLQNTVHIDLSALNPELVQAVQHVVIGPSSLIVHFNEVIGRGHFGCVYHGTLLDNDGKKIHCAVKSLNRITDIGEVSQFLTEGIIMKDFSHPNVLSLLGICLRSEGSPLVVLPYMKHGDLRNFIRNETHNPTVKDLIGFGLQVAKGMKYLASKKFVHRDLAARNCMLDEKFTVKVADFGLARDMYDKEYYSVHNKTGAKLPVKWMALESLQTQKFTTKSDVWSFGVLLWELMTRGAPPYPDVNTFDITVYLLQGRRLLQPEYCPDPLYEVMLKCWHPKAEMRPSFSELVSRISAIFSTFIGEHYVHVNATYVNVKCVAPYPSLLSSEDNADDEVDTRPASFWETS

Macrophage-stimulating protein receptor, sequence (Q04912 25-304 limits assumed): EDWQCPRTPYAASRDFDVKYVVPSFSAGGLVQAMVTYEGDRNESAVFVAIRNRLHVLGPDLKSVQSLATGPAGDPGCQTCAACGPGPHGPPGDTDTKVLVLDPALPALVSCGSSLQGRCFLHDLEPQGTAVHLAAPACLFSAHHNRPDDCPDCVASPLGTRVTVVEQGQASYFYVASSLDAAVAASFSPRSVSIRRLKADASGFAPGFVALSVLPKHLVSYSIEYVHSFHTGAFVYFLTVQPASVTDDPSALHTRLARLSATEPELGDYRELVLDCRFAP
Macrophage-stimulating protein receptor, sequence (Q04912 310-1400 limits assumed): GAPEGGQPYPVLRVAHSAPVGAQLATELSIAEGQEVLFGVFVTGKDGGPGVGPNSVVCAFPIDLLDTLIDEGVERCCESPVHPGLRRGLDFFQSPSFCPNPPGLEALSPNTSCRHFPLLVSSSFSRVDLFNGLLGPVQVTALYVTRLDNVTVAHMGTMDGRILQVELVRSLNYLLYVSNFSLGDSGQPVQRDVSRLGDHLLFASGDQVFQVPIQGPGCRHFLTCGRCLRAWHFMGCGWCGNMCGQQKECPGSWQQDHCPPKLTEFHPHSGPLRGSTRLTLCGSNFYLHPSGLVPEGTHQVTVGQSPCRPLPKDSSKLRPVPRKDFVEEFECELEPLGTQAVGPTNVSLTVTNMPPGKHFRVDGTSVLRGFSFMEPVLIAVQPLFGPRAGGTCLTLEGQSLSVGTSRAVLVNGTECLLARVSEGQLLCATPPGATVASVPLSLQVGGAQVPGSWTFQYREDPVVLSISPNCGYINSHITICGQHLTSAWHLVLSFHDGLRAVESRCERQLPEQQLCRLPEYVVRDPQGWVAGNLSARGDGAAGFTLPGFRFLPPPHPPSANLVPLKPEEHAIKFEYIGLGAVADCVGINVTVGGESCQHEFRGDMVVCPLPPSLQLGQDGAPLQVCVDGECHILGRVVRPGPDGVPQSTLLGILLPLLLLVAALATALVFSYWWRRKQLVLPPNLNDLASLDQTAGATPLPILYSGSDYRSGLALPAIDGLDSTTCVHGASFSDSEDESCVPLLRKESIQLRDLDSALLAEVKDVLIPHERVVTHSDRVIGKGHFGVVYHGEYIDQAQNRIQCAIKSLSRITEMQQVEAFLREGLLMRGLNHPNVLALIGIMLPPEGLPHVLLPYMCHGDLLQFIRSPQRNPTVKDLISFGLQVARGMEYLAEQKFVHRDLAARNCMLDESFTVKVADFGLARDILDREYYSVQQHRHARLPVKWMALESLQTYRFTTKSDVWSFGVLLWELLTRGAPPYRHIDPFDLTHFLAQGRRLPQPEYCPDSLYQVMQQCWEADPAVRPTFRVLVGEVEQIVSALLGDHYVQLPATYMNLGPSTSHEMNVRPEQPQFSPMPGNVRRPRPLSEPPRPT

pIC50 [1]	pIC50 [2]	Compound
7.57		COc1cccc(-c2c(C(=O)Nc3ccc(Oc4ccnc5cc(-c6cn(C)cn6)sc45)c(F)c3)cnn2-c2ccccc2)c1
	< 5.00	COc1ccc(-c2c(C(=O)Nc3ccc(Oc4ccnc5cc(-c6cn(C)cn6)sc45)c(F)c3)cnn2-c2ccccc2)cc1
	< 5.00	Cn1cnc(-c2cc3nccc(Oc4ccc(NC(=O)c5cnn(-c6ccccc6)c5-c5ccncc5)cc4F)c3s2)c1
7.00		Cn1cnc(-c2cc3nccc(Oc4ccc(NC(=O)c5cc(-c6ccccc6)n(-c6ccccc6)c5)cc4F)c3s2)c1
